Patent US8673935B2, “Drugs for the treatment of sarcogylcanopathies” (Genethon, priority 2006, dated 2014)
Where a SMILES comes first, the peptide text is derived from it. The star is where a group is joined. Cbz = O=C(OCc1ccccc1)*

Assays:
[1] = system: mutant R77C α-sarcoglycan; test: Quadritransfected cell model: membrane targeting of mutant R77C α-sarcoglycan, immunohistochemical labelling; type: cell-based, human
Method: (§1) A second aspect of the invention relates to the assay used for in vitro assessment of the efficacy of inhibitors of the endoplasmic reticulum associated degradation (ERAD) pathway, used for the treatment of sarcoglycanopathies. This assay consists of the following steps: • co-transfection of cells with the four sarcoglycan genes (γ-, α-, β- and δ-), of which one carries the mutation to be tested; • incubation for several hours in the presence of the inhibitor; • localisation of the sarcoglycan complex.
(§2) Cross-sections were dried, then rehydrated in PBS or fixed cells were treated for 20 min with 1% triton in PBS, then incubated for 30 min at room temperature (RT) in PBS containing 15% foetal calf serum. Cross-sections were incubated with polyclonal anti-sarcoglycan antibodies (α-sarcoglycan: dilution 1/1000, targeting amino acids 366-379 of human α-sarcoglycan; β-sarcoglycan: dilution 1/20, NCL-b-SARC (Novocastra); γ-sarcoglycan: dilution 1/20, NCL-g-SARC (Novocastra); dystrophin: dilution 1/20, NCL-DYS2 (Novocastra); and calreticulin: dilution 1/70, ab4109 (Abcam)) for 1 to 2 hours at RT then rinsed 3 times in PBS. […] Cross-sections were then rinsed three times in PBS, mounted with fluoromount-G (Southern Biotech 0100-01) and then observed with a confocal microscope (Leica). Immunohistochemical analysis of human biopsy specimens was performed as described in Hackman et al. (9).
NIH3T3 or 911 cells were grown in Dulbecco's Modified Eagle Medium supplemented with glutamine, gentamicin and 10% foetal calf serum. Cells were transfected using […] Fugene (ROCHE) per 1 μg plasmid. 0.5 μg of each plasmid (α-SG or α-SG-R77C and β-SG, γ-SG, δ-SG) was used per well in 6-well dishes. For treatment by inhibitors, 43 hours after transfection cells were incubated for 5 hours with either the mannosidase inhibitor (kifunensin 5 μM, VWR) or the proteasome inhibitor (MG132 5 μM diluted in DMSO, Sigma). Cells were then rinsed in PBS and fixed with 3.7% formaldehyde in PBS for 15 min at RT, and rinsed three more times in PBS before immunohistochemical labelling. […]

[2] = cited from earlier work
[3] = system: mutant α-sarcoglycan in Sgca−/− muscle; test: Intramuscular inhibitor in Sgca−/− mice injected with AAV-SGCA77C vector: α-sarcoglycan labelling of muscle; type: in vivo, mouse; conditions: AAV-SGCA77C in tibialis anterior, 10 μM kifunensin intramuscular over one week, FIG. 11
Method: as §2
The rAAV2/1 viral preparations were injected (10^10 viral genomes (vg) in 30 μl total volume) in the left tibialis anterior muscle of Sgca−/− mice. On days 20, 22, 25 and 27 after injection, 10 μM kifunensin or 20 μM MG132 were injected into the muscle (i.e. either twice or 4 times the concentrations used in vitro to take into account diffusion within the muscle). One day prior to sacrifice (day 27), mice were injected intraperitoneally with Evans blue dye. […]

[4] = system: mutant E262K δ-sarcoglycan; test: Quadritransfected cell model: immunohistochemical labelling of mutant E262K δ-sarcoglycan; type: cell-based, human; conditions: dMJ 5 or 100; FIG. 12B
Method: as §1
B/Immunohistochemical labelling of δ-sarcoglycan in cells quadritransfected with the three α-, β- and γ-sarcoglycans and mutant E262K δ-sarcoglycan with or without 1-deoxymannojirimycin (dMJ) 5 or 100
FIG. 13: A/Immunohistochemical labelling of δ-sarcoglycan in cells quadritransfected with the three α-, β- and γ-sarcoglycans and mutant E262K δ-sarcoglycan with or without kifunensin 5 μM.
(§3) Cross-sections were dried, then rehydrated in PBS or fixed cells were treated for 20 min with 1% triton in PBS, then incubated for 30 min at room temperature (RT) in PBS containing 15% foetal calf serum. […]

[5] = system: mutant Q11E β-sarcoglycan; test: Quadritransfected cell model: immunohistochemical labelling of mutant Q11E β-sarcoglycan; type: cell-based, human; conditions: dMJ 5, 50 or 100 μM; FIG. 12C
Method: as §1
C/Immunohistochemical labelling of β-sarcoglycan in cells quadritransfected with the three α-, γ- and δ-sarcoglycans and mutant Q11E β-sarcoglycan with or without 1-deoxymannojirimycin (dMJ) 5, 50 or 100 μM.
B/Immunohistochemical labelling of β-sarcoglycan in cells quadritransfected with the three α-, γ- and δ-sarcoglycans and mutant Q11E β-sarcoglycan with or without kifunensin 5 μM.
as §3

## CC(C)C[C@@H](C=O)NC(=O)[C@H](CC(C)C)NC(=O)[C@H](CC(C)C)NC(=O)OCc1ccccc1 [MG132] (Cbz-Leu-Leu-Leu-aldehyde)
[1]; MG132 5 μM, 5 hours, 43 hours after transfection, NIH3T3 or 911 cells, FIG. 9
  membrane targeting of mutant α-sarcoglycan (R77C): restored membrane targeting

## O=C1N[C@@H]2[C@@H](O)[C@@H](O)[C@H](O)[C@@H](CO)N2C1=O [kifunensin, Kifunensin]
[2]
  water solubility: water-soluble
[3]
  intracellular α-sarcoglycan aggregates in muscle: absence of aggregates
[1]; kifunensin 5 μM, 5 hours, 43 hours after transfection, NIH3T3 or 911 cells, FIG. 10
  membrane targeting of mutant α-sarcoglycan (R77C): restore membrane targeting

## OC[C@H]1NC[C@@H](O)[C@@H](O)[C@@H]1O [1-deoxymannojirimycin]
[4]
  restoration for mutation E262K on sub-unit δ: confirmed our working hypothesis
[1]; 100 μM 1-deoxymannojirimycin, FIG. 12A
  membrane targeting of mutant α-sarcoglycan (R77C): efficacy of this substance for restoring membrane targeting
[5]
  restoration for mutation Q11E on sub-unit β: confirmed our working hypothesis
